Experimental data reported in patent publication US9174917B2, “Bexarotene analogs” (Arizona Board of Regents on Behalf of Arizona State …, priority 2010, dated 2015).

Assays:
RXR = settings: from the literature; cited from earlier work
CTCL cells = assay: DNA microarray gene expression analysis in CTCL cells; format: cell-based, human; settings: 4-hour treatment, versus ethanol vehicle control
Description: DNA microarray analysis is a method to assess genome-wide gene expression by simultaneously quantitating mRNA levels from all or a subset of genes in a genome and comparing these levels between a control and an experimental sample. These changes are compared, such as in as wild type versus mutant strains or cells with no treatment compared to cells treated with a reagent. RNA is extracted from the two cell types, and either converted to cDNA or amplified to cRNA, and then this message pool is used to assess gene expression changes. Both pools of labeled message are hybridized to a DNA microarray (or “gene chip”). These microarrays have all genes in the genome spotted onto the array in a precise fashion, such that this chip experiment becomes a genome-wide northern blot, assaying the message levels of all genes in the cells. Since the control and the experimental are hybridized to the same chip, there can be direct comparisons performed between the starting mRNA levels of the two, looking for genes that are under or over expressed in the experimental as compared to the control, analyzing the intensity of the hybridization of both cDNA pools.
The total RNA will be isolated from human CTCL cells, either untreated or treated with bexarotene or the appropriate analog. The RNA quality and integrity will be tested before hybridization using denaturing gel electrophoresis as well as reverse transcription followed by PCR. Once high quality RNA is isolated, labeled cRNA can be generated with the Genisphere 350 kit. Microarrays are readily available for such tests, for example, human microarrays can be obtained from Washington University St. Louis (Human HEEBO microarrays), or alternatively from the Toronto Microarray Centre (Toronto, Canada).
CTCL cells were treated bexarotene or ethanol vehicle control and total RNA was extracted after 4-hour treatment using the BioRad Aurum Total RNA Mini kit. Total RNA extracted was utilized to produce cRNA using a Genisphere 350 kit and was used to hybridize human HEEBO microarray slides obtained from GCAT (Genome Consortium for Active Teaching). The Genisphere 350 kit high sensitivity protocol was used and representative results were obtained (data not shown). […] Likewise, there was a 2.9-fold downregulation of REEP, a gene that occurs in a deleted segment of human 5q31 in malignant myeloid diseases; and 2.6-fold downregulation of RAC GAP1, a GTPase activating protein of RAC, a protein required for malignant cell movement106; and 2.5-fold downregulation of karyopherin alpha 1 (importing alpha 5), a protein required for STAT1 import into the nucleus. […]

| Structure (SMILES) | reported / documented RXR activity (RXR) | downregulation of RAC GAP1 (CTCL cells) [fold] | downregulation of REEP (CTCL cells) [fold] | downregulation of karyopherin alpha 1 (importing alpha 5) (CTCL cells) [fold] | upregulation of death associated protein kinase 3 (CTCL cells) [fold] | upregulation of endothelin converting enzyme 1 (CTCL cells) [fold] | upregulation of urocortin (CTCL cells) [fold] |
| --- | --- | --- | --- | --- | --- | --- | --- |
| Cc1cc2c(cc1C1(c3ccc(C(=O)O)cc3)CC1)C(C)(C)CCC2(C)C [Compound 105] | potent, RXR-selective agonists | – | – | – | – | – | – |
| CC(/C=C/C1(c2cc3c(cc2C)C(C)(C)CCC3(C)C)CC1)=C\C(=O)O [Compound 106] | potent, RXR-selective agonists | – | – | – | – | – | – |
| C=C(c1ccc(C(=O)O)cc1)c1cc2c(cc1C)C(C)(C)CCC2(C)C [bexarotene] | – | 2.6 | 2.9 | 2.5 | 4.3 | 4.6 | 3.5 |
